Patent US7704969B2, “Transfection complexes” (ICH Productions Limited, priority 2001, dated 2010)
“Also recorded” adds a separate entry of the source. Bridge positions count the residues as written; N and C are the ends. Ends that are not written are not given here.

What was measured:
[1] = tested on: HAE cells; test: Whole cell ELISA of phage binding to HAE cells; set-up: species or system human; conditions: phage sequences of Table 1a compared and ranked using a range of phage titres
Procedure: Following incubation of the phage with the HAE cells, the cells are washed and retained phage may then be detected by immunostaining. Cell specificity is assessed by comparing phage binding to target cells with phage binding to the wells on which the cells were plated and with phage binding to NIH 3T3 fibroblast control cells.
Binding of phage to tissue cultured HAE cells was investigated by whole cell ELISA. Approx. 8×10^4 HAE cells in […] Hanks Balanced Salts Solution (HBSS) were added to each well of a 96 well plate and incubated at 37° C. until cells had adhered. The cells were washed gently in HBSS before blocking by the addition of 0.5% BSA in HBSS for 30 mins. […] Bound phage were detected by the addition of horseradish peroxidase (HRP)-conjugated anti-M13 antibody diluted 1:5000 in blocking buffer for 1 hour, before washing three times in PBS and developing the ELISA with 2,2′-azino-bis(3-ethylbenzthiazoline 6-sulfonic acid) (ABTS) substrate solution and reading the absorbance on a plate-reading spectrophotometer at 405 nm. […]
Approx. […] Bound phage were detected by the addition of HRP-conjugated anti-M13 antibody diluted 1:5000 in blocking buffer for 1 hour, before washing three times in PBS, developing the ELISA with ABTS solution, and reading the absorbance at 405 nm.

[2] = tested on: HAE cells; test: Luciferase reporter gene transfection of HAE cells with lipid/peptide/DNA vector complexes; format: cell-based, human
Description: Transfection complexes were made by mixing the components in the order 1) lipid, then 2) peptide and, finally 3) DNA, followed by dilution. The vector complex suspension was applied to HAE cells and control cells. Vector complexes incorporating peptide Q ([K]16-GACLQHKSMPCG [SEQ. ID. NO.:12]) and vector complexes incorporating peptide P ([K]16-GACLPHKSMPCG [SEQ. ID. NO.:13]) were synthesised and compared with vector complexes incorporating peptide S ([K]16-GACYKHPGFLCG] [SEQ. ID. NO.:14]) which is a control peptide having the same amino acid constituents as peptide P but in a randomised order (the “scrambled control”), Peptide 12 ([K]16—XSXGACRRETAWACG [SEQ. ID. NO.:15]), a targeting peptide known to bind to alpha 5 beta 1 integrins and Peptide K ([K]16) a DNA binding moiety with no targeting ligand attached.
Transfections of HAE cells and 3T3 cells were performed in 96 well plates containing 20,000 cells plated 24 hours earlier. In the transfection vector complex, peptide to DNA charge ratios (+/−) were used at 1.5:1, 3:1 and 7:1. At physiological pH, DNA carries negative charge and the polycationic-nucleic acid binding component carries positive charge. The “charge ratio” is accordingly the ratio of the charges of the two components in the complex. The lipid component was maintained at a constant proportion, by weight, relative to DNA of 0.75:1.
Control peptide (S), consisted of the same amino acid constituents as the targeting peptide P but in a randomised order, was synthesised for incorporation into lipopolyplex formulations. Transfections of HAE and 3T3 cells were performed in 96 well plated containing 20,000 cells plated 24 h earlier. In the transfection complex, peptide to DNA charge ratios (+/−) were used at 1.5:1, 3:1 and 7:1. The lipid component was maintained at a constant proportion, by weight, relative to DNA of 0.75:1. Prior to making transfection complexes the lipid component was diluted to a concentration of 15 μg per ml, the peptide was prepared at 0.1 mg/ml and the DNA was at 20 μg per ml. All dilutions were performed with OptiMEM reduced serum tissue culture medium (Life Technologies). Transfection complexes were made by mixing of components in the order 1) lipid then 2) peptide and finally 3) DNA, then diluted with OptiMEM to a concentration relative to the DNA component of 0.25 μg DNA per 200 μl which volume was added to each well. Each group was performed in replicates of six. The vector complex suspension was then applied to cells within 5 minutes of preparation. Transfection incubations were performed at 37° C. for 4 h. Luciferase reporter gene assays in cell free extracts were performed after 48 h incubation using a kit from Promega according to the manufacturer's protocol. […]

[3] = tested on: 3T3 cells; test: Luciferase reporter gene transfection of 3T3 cells; format: cell-based, mouse; conditions: FIG. 8, best peptide:DNA charge ratio, expression after 24 hours

LPHKSMP (not fully specified (N-terminus, C-terminus)) [basis of peptide P]
binding affinity to HAE cells (binding strength by ELISA) [1]: highest binding affinity

[K]16-GACLPHKSMPCG (KKKKKKKKKKKKKKKKGACLPHKSMPCG; disulfide 19-27 (inferred)) [peptide P]
transfection efficiency relative to peptide 12 (next best peptide) ([2]; peptide P at 7:1 charge ratio vs peptide 12 at 3:1 charge ratio, luciferase): five-fold higher | transfection performance relative to peptide Q ([2]; transfection assay, FIG. 3): significantly better | transfection efficiency relative to peptide K (K16, no targeting ligand) ([2]; vector complexes, luciferase): almost nine-fold higher; also recorded: almost nine-fold more efficient

[K]16-GACLQHKSMPCG [peptide Q]
transfection efficiency relative to peptide 6 [3]: approximately 1.5 times

[K]16-GACSERSMNFCG (KKKKKKKKKKKKKKKKGACSERSMNFCG; disulfide 19-27 (inferred))
transfection efficiency relative to peptide 6 [3]: approximately 1.5 times

[K]16-GACYKHPGFLCG (KKKKKKKKKKKKKKKKGACYKHPGFLCG; N-terminal K16 oligolysine; Targeting peptide, see description) [peptide S, reference compound]
transfection performance of peptide S relative to peptide K16 ([2]; in transfection complexes): less than a tenth as good
